Assay results reported in patent publication US5523314A, “Compounds useful as hypoglycemic agents and for treating Alzheimer's disease” (priority 1994, dated 1996).
Where two headings read alike, the source gives them in different places.

System: blood glucose level
Test: Hypoglycemic activity in obese diabetic mice (Table 1)
Assay type: in vivo, male viable yellow obese-diabetic mice
Details: for response vs control in vivo at 50 mg/kg / response vs control in vivo at 100 mg/kg: Mus musculus, ip, intraperitoneal; for ability to lower blood glucose levels in mammals: compared to structurally similar compounds known in the art, in words
Method: The hypoglycemic activity of the compounds of the present invention was determined by testing the efficacy of the compounds in vivo in male viable yellow obese-diabetic mice. The test procedure is described in detail below.
Test formulations were prepared by dissolving the test compound in a saline solution containing 2% Emulphor (a polyoxyethylated vegetable oil surfactant from GAP Corp.) to provide the dose level desired. Each test formulation was administered to six viable yellow obese-diabetic mice intraperitoneally at the beginning of the experiment. Blood glucose levels were determined immediately before the first dose and at 2 and 4 hours thereafter using glucose oxidase. A mean was taken of the 6 values obtained before the first dose and at the 2 and 4 hour intervals. In Table 1, Column 1 provides the example number of the test compound, Column 2 provides the dose level of compound tested, and Columns 3 and 4 provide a measurement of the test animal's blood glucose level 2 and 4 hours after test compound administration, respectively, as a percentage of the test animal' s pre-administration blood glucose level.

[1] = 2 h, 2 hrs, read-out: Percent of Initial Blood Glucose Level After 2 hrs.
[2] = 4 h, 4 hrs, read-out: Percent of Initial Blood Glucose Level After 4 hrs.

Compound	response vs control in vivo at 50 mg/kg [1] [%]	response vs control in vivo at 50 mg/kg [2] [%]	response vs control in vivo at 100 mg/kg [1] [%]	response vs control in vivo at 100 mg/kg [2] [%]	ability to lower blood glucose levels in mammals
O=C1NC(=S)SC1=Cc1ccccc1O [Example 7, 5-[(2-hydroxyphenyl)methylene]-2-thioxo-4-thiazolidinone]	80 ± 4	91 ± 7	–	–	–
COc1ccc(C=C2SC(=S)NC2=O)cc1O [Example 40, 5-[(3-hydroxy-4-methoxyphenyl)methylene]-2-thioxo-4-thiazolidinone]	78 ± 5	72 ± 4	–	–	–
CC(C)(C)c1cc(C=C2SC(=S)N(CC(=O)O)C2=O)cc(C(C)(C)C)c1O [Example 53, 5-[[3,5-bis(1,1-dimethylethyl)-4-hydroxyphenyl]methylene]-4-oxo-2-thioxo-3-thiazolidine acetic acid]	73 ± 4	55 ± 5	83 ± 9	80 ± 14	surprising ability to lower blood glucose levels in mammals
Cc1cccc(C=C2SC(=S)NC2=O)c1 [Example 33, 5-[(3-methylphenyl)methylene]-2-thioxo-4-thiazolidinone]	91 ± 6	86 ± 7	–	–	–
O=C1NC(=S)SC1=Cc1ccccc1[N+](=O)[O-] [Example 9, 5-[(2-nitrophenyl)methylene]-2-thioxo-4-thiazolidinone]	91 ± 8	83 ± 6	–	–	–
C=CCN1C(=O)C(=Cc2ccc(O)c(OC)c2)SC1=S [Example 30, 5-[(3-methoxy-4-hydroxyphenyl)methylene]-3-(2-propenyl)-2-thioxo-4-thiazolidinone]	78 ± 7	81 ± 5	–	–	–
O=C1NC(=S)SC1=Cc1cccs1 [Example 14, 5-[(2-thienyl)methylene]-2-thioxo-4-thiazolidinone]	84 ± 7	71 ± 8	–	–	–
O=C1NC(=S)SC1=Cc1ccc([N+](=O)[O-])c(O)c1 [Example 43, 5-[(3-hydroxy-4-nitrophenyl)methylene]-2-thioxo-4-thiazolidinone]	92 ± 7	88 ± 4	–	–	–
CCCOc1ccc(C=C2SC(=S)NC2=O)cc1OCCC [Example 51, 5-[(3,4-dipropoxyphenyl)methylene]-2-thioxo-4-thiazolidinone]	89 ± 7	85 ± 8	–	–	–
COc1ccc(C=C2SC(=S)NC2=O)cc1C [Example 27, 5-[(3-methyl-4-methoxyphenyl)methylene]-2-thioxo-4-thiazolidinone]	93 ± 3	84 ± 6	–	–	–
O=C1NC(=S)SC1=Cc1ccc2c(c1)OCO2 [Example 2, 5-[(1,3-benzodioxol-5-yl)methylene]-2-thioxo-4-thiazolidinone]	96 ± 1	82 ± 3	–	–	–
O=C1NC(=S)SC1=Cc1cccc([N+](=O)[O-])c1 [Example 10, 5-[(3-nitrophenyl)methylene]-2-thioxo-4-thiazolidinone]	89 ± 4	80 ± 4	–	–	–
CCC(C)c1cc(C=C2SC(=S)N(CC(=O)O)C2=O)cc(C(C)CC)c1O (stereo not drawn) [Example 59, 5-[[3,5-bis(1-methylpropyl)-4-hydroxyphenyl]methylene]-4-oxo-2-thioxo-3-thiazolidine acetic acid]	62 ± 5	59 ± 9	–	–	surprising ability to lower blood glucose levels in mammals
CCCCOc1ccc(C=C2SC(=S)NC2=O)cc1 [5-[(4-butoxyphenyl)methylene]-2-thioxo-4-thiazolidinone]	–	–	–	–	surprising ability to lower blood glucose levels in mammals
O=C1NC(=S)SC1=Cc1c[nH]c2ccccc12 [Example 39, 5-[(1H-indol-3-yl)methylene]-2-thioxo-4-thiazolidinone]	83 ± 4	76 ± 4	–	–	–
